“Also recorded” adds a separate entry of the source.
Assays:
tubulin [1] = tested on: T1, tubulin; assay: Room temperature tubulin assembly assay (favorable reaction conditions, glutamate-dependent); type: biochemical; conditions: no polymerization in the absence of drug
T1 construct: Activity in room temperature assay; other: no polymerization in the absence of drug; other: GTP-only system, critical concentrations
Experimental: Previous observations with paclitaxel analogs indicate that differences between compounds are magnified in restrictive reaction conditions and minimized in favorable reaction conditions. […] However, under favorable reaction conditions (room temperature) the quantitative difference between paclitaxel and sarcodictyin A was only 2.5-fold. […] The critical concentration with 10 μM sarcodictyin A under the reaction conditions shown in FIG. 6B is 1.0 mg/ml in the GTP-only system.

tubulin [2] = tested on: T1, tubulin; assay: Enhancement of glutamate- or MAP-induced tubulin assembly, turbidimetric curves (FIGS. 4 and 5); type: biochemical
tubulin [3] = tested on: T1, tubulin; assay: as above; type: biochemical; remark: listed apart in the source
Experimental: In those cases where acceleration of tubulin polymerization is observed, an IC50 value for inhibition of polymerization is of course not derivable. Results for such compounds may be presented in the form of turbidimetric curves, e.g. as presented in FIGS. 4 and 5 for representative compounds 13 and 18.
FIG. 4: Each reaction mixture contained 0.8 M glutamate (pH 6.6), 0.4 mM GTP, 12 μM (1.2 mg/ml) tubulin, 4% (v/v) dimethyl sulfoxide, and compound 13 or 18 as indicated. Baselines were established at 0°, and at time zero the temperature controller was set at 26°. At the time indicated by the dashed line, the temperature controller was set at 0°. A. Curve 1, no drug; curve 2, 2 μM compound 13; curve 3, 5 μM 7; curve 4, 10 μM 7; curve 5, 40 μM 7; curve 6, 40 μM 14. B. Curve 1, no drug; curve 2, 2 μM compound 18; curve 3, 5 μM 18; curve 4, 10 μM 18; curve 5, 40 μM 18.
FIG. 5: Each reaction mixture contained 0.1 M Mes (pH 6.9 with NaOH in 0.5 M stock solution), 0.1 mM GTP, 10 μM (1.0 mg/ml) tubulin, 0.75 mg/ml heat-treated MAPs, 4% dimethyl sulfoxide, and drug as indicated. […] There was no change in turbidity in any reaction mixture. At this point the temperature controller was set at 10°, and subsequent temperature changes, as indicated, were made at the times indicated by the vertical dashed lines. Curve 1, no drug; curve 2, 10 μM paclitaxel; curve 3, 10 μM compound 13; curve 4, 20 μM 7; curve 5, 40 μM 7; curve 6, 10 μM compound 18.

tubulin polymer [4] = assay: Inhibition of [3H]paclitaxel binding to tubulin polymer
tubulin [5] = tested on: T1, tubulin; assay: Tubulin polymerization inhibition in vitro (turbidity at 350 nm); type: biochemical; parameters: key: *: Accelerates tubulin polymerization; conditions: no IC50 derivable
tubulin [6] = tested on: T1, tubulin; assay: Polymer morphology by electron microscopy; type: biochemical
Text: It was possible that compounds 13 and 18 were not actually acting like paclitaxel in enhancing microtubule assembly and in stabilizing the microtubules formed in the course of the turbidity studies shown in FIG. 4, but that these agents were causing formation of polymers of aberrant morphology and temperature stability different from microtubules, such as occurs with vinca alkaloids. Polymer morphology was examined by electron microscopy. […] Even more important, when the reaction mixtures were returned to 0° C. for 15 min, no microtubules were visualized on grids prepared from the reaction mixture without drug.

tubulin [7] = tested on: T2, tubulin; assay: Tubulin polymerization inhibition in vitro (turbidity at 350 nm); type: biochemical
T2 construct: other: 1.0 M glutamate, 10 μM tubulin; Effect on tubulin polymerization / microtubule assembly
Experimental: Microtubule assembly is followed in a temperature controlled recording spectrophotometer. For details and a discussion, see R. D'Amato et al., Proc Natl Acad Sci USA, 91:3964-3968 (1994).
A typical reaction mixture, which will have a final reaction volume of […], contains 1.0 M monosodium glutamate (pH 6.6), 1.0 mg/ml (10 μM) tubulin, 1.0 MM MgCl2, 4% (v/v) dimethylsulfoxide, and a compound to be tested at the desired concentration (typically 0.1 to 100 μM). The reaction mixtures are incubated for 15 min. at 37° C. and then chilled on ice. After addition of 10 μl 12.5 mM GTP (and, optionally, 0.33 mg/ml microtubule-associated proteins, or MAPs) to initiate polymerization, each reaction mixture is transferred to a cuvette at 0° C., and a baseline established. At time zero, the temperature controller of the spectrophotometer is set to a target temperature, typically between 25 and 37° C. Microtubule assembly is monitored by observing an increase in turbidity at 350 nm as the temperature of the reaction mixture rises to the set target temperature.
The results are presented in Table 1 as IC50 values (μM) for inhibition of tubulin polymerization. Alternatively, inhibition of microtubule assembly can be detected by transmission electron microscopy, as described in U.S. Pat. No. 5,504,074 which is hereby incorporated by reference in its entirety.

tubulin [8] = tested on: T1, tubulin; assay: Critical concentration of tubulin for assembly, turbidimetric (FIG. 6); type: biochemical; conditions: for Critical concentration of tubulin, GTP-dependent, MAP-independent assembly: no MAPs
Experimental: FIG. 6 presents critical concentrations, obtained at 30° C., of tubulin with paclitaxel and compound 13. A: MAPs -and GTP-dependent assembly without drug and in the presence of 10 μM paclitaxel or 10 μM 13. B: GTP-dependent, MAP-independent assembly with 10 μM paclitaxel or 10 μM 13.
Measurement of the critical concentration with and without MAPs with paclitaxel, and again with 13, was therefore carried out to provide some idea of the comparative activity of these agents. The data are presented in FIG. 6, which yield critical concentrations, obtained at 30° C., of 1.4, 0.06, and 0.50 mg/ml for MAP-and GTP-dependent assembly without drug and in the presence of 10 μM paclitaxel or 10 μM 13, respectively, and 0.20 and 1.4 mg/ml for GTP-dependent, MAP-independent assembly with 10 μM paclitaxel or 10 μM 13. […] (A constant weight ratio of MAPs to tubulin of 1:3 was used, because the suboptimal concentration of MAPs caused greater differences in the critical concentrations obtained.) Reaction mixtures (0.25 ml) contained 0.1 M Mes (pH 6.9), 100 μM GTP, 4% dimethyl sulfoxide, the indicated tubulin concentration (with heat-treated MAPs in 1:3 weight ratio to the tubulin, panel A only), and either 10 μM paclitaxel (▴), 10 μM compound 13 (◯), or no drug (▾). Cuvette contents were equilibrated at 0°, drugs were added, temperature was jumped to 30° (about one min), and the turbidity changes after a 20 min incubation measured.

tubulin [9] = tested on: T1, tubulin; conditions: favorable reaction conditions (room temperature); cited from earlier work
tubulin polymer [10] = conditions: cited from earlier work
[11] = GTP-only system, critical concentrations

SMILES	Activity in room temperature assay (tubulin [1])	Tubulin assembly in the absence of GTP (tubulin [2])	Assembly reaction when either MAPs or GTP was omitted (tubulin [2]; 10 μM tubulin, 40 μM compound 13 or 10 μM paclitaxel)	Effect on glutamate- and MAP-induced tubulin assembly (tubulin [3])	Effect on MAP-induced tubulin assembly (tubulin [3]; 0.75 mg/ml MAPs, 1.0 mg/ml tubulin, 25° C.)	Inhibition of [3H]paclitaxel binding to tubulin polymer (tubulin polymer [4])	Maximal inhibition of [3H]paclitaxel binding to tubulin polymer (tubulin polymer [4])	Tubulin polymerization inhibition, symbol instead of IC50 (tubulin [5])	Microtubules formed, seen by electron microscopy (tubulin [6])	Cold stable microtubules after return to 0° C. for 15 min (tubulin [6]; 40 μM 13 or 10 μM paclitaxel)	Effect on tubulin polymerization / microtubule assembly (tubulin [7])	Assembly of microtubules without MAPs (tubulin [8]; 10 μM 13, 40 μM tubulin)	Critical concentration of tubulin, MAP- and GTP-dependent assembly (tubulin [8]; 30° C., 10 μM drug, MAPs:tubulin 1:3 by weight)	Critical concentration of tubulin, GTP-dependent, MAP-independent assembly (tubulin [8]; 30° C., 10 μM drug)	Quantitative difference between paclitaxel and sarcodictyin A (tubulin [9])	Inhibition of paclitaxel binding to tubulin polymer (tubulin polymer [10])	Activity relative to compound 13 (% more active) (tubulin [8]; [11])	Activity relative to paclitaxel (fold less active) (tubulin [8]; [11])
CCOc1cc2c(cc1OC(C)=O)C(=O)CC[C@@H]1[C@@H]2CC[C@]2(C)[C@@H](OC(C)=O)CC[C@@H]12 [Compound 13, B-Homo-3,17β-diacetoxy-2-ethoxyestra-1,3,5(10)-triene-6-one]	inactive	has not been observed; also recorded: not without GTP	no reaction occurred	paclitaxel-like properties	enhanced tubulin assembly; also recorded: significantly less than that of paclitaxel	only minimally inhibits	about 20%	*	abundant microtubules were formed that were indistinguishable from those formed in the absence of drug	abundant cold stable microtubules were observed	stimulate microtubule assembly	assembly of microtubules was observed without MAPs	0.50 mg/mL	1.4 mg/mL	–	–	–	–
COC(=O)/C1=C/[C@@H]2[C@@H](C(C)C)CC=C(C)[C@@H]2C[C@H](OC(=O)/C=C/c2cn(C)cn2)[C@]2(C)C=C[C@@]1(O)O2 [sarcodictyin A]	–	–	–	–	–	–	–	–	–	–	–	–	–	1.0 mg/mL	2.5 fold	only weakly inhibits	40%	about 5 fold
